This assay concerns ppMlc (T18/S19) levels in A7R5 cells. Put plainly: A7R5 in-cell ELISA (pMLC). It is filed as cell-based, Rat. As to conditions: for inhibition at 10 µM / IC50 / inhibition at 1 µM: Rattus norvegicus, A7R5, A7R5 cells; for inhibition at 10 µM: 10 μM compound; for inhibition at 10 µM / inhibition at 1 µM: read-out: pMLC % inh A7R5 @ [conc]; for IC50: ppMlc (T18/S19). The protocol: Determination of Compounds ROCK Inhibitory Activity in A7R5Cells.
Rat aortic smooth muscle cell line, A7R5, cells were seeded with density of 5,000 cells/well in a 96-well plates for 24 hours and subsequently treated for 90 min with testing compounds. Cells were then fixed and processed according to the In-Cell ELISA Colorimetric Detection Kit manual (Thermo Scientific).
An A7R5 in-cell Elisa assay was performed. A7R5 cells were treated with 9 points 2 fold serial dilution of compounds and ppMlc (T18/S19) levels were determined to calculate cellular IC50 values of the compounds. Compounds of the invention gave in cell IC50s under 100 nM.
In vitro activities for the compounds were measured with Z′-lyte kinase kit (ThermoFisher Scientific). The percent inhibition rate was calculated by normalizing the kinase activity value obtained with 1 μM compound treatment against DMSO control value and then applied to the formula, [1-(compound/DMSO)]×100%. IC50s were calculated using the nonlinear regression curve fit function of the GraphPad Prism software with kinase activities data measured with 9 points 2-fold serial dilution of compounds treatment. In cell pMLC IC50s were calculated with data obtained from A7R5 cell experiments. A7R5 cells were treated with 9 points 2-fold serial dilution of compounds and ppMlc (T18/S19) levels were determined to calculate cellular IC50 values of the compounds using the nonlinear regression curve fit function of the GraphPad Prism software. NIH3T3 cells stably expressing ACTA2-promoter-driven-luciferase were applied to measure ROCK compounds functional IC50s in cells. Cells were plated in 96 well plates to confluence and treated with 9 points serial dilution of compounds in combination with TGFβ1 for 24 hr. Luciferase activities were measured and compound's IC50s were calculated using the nonlinear regression curve fit function of the GraphPad Prism software.
In general terms: In an ELISA, binding on a coated surface is turned into a signal by an enzyme label.

As to `c1ccc(CC2CN(c3nc4c(c(Nc5ccc6[nH]ncc6c5)n3)COC4)CCCN2)cc1` (centres unmarked) [Example 2, 2-(3-benzyl-1,4-diazepan-1-yl)-N-(1H-indazol-5-yl)-5,7-dihydrofuro[3,4-d]pyrimidin-4-amine], the inhibition at 10 µM stood at 72.4% and the IC50 – broadly, the concentration that inhibits the measured activity by half – came out at 2500 nM. Turning to `Cc1cnc(N2CCCNCC2)nc1Nc1ccc2[nH]ncc2c1` [Example 3, N-(2-(1,4-diazepan-1-yl)-5-methylpyrimidin-4-yl)-1H-indazol-5-amine], the inhibition at 10 µM turned out to be 54.4%. Take `Cc1nc(N2CCCNC(C(C)C)C2)nc(Nc2ccc3[nH]ncc3c2)c1C` (centres unmarked) [Example 16, N-(2-(3-isopropyl-1,4-diazepan-1-yl)-5,6-dimethylpyrimidin-4-yl)-1H-indazol-5-amine]: the inhibition at 10 µM is 32.1%. As to `O=C1CN(c2nccc(Nc3ccc4[nH]ncc4c3)n2)CCN1` [Example 17, 4-(4-((1H-indazol-5-yl)amino)pyrimidin-2-yl)piperazin-2-one], the inhibition at 1 µM (1 μM compound) amounted to 11.2%.

On to `Cc1nc(N2CCCNC(c3ccccc3)C2)nc(Nc2ccc3[nH]ncc3c2)c1C` (centres unmarked) [Example 20, N-(5,6-dimethyl-2-(3-phenyl-1,4-diazepan-1-yl)pyrimidin-4-yl)-1H-indazol-5-amine], for which the inhibition at 10 µM came to 37.6%. On the same count and under the same terms, to `Cc1nc(N2CCNC(c3ccccc3)CC2)nc(Nc2ccc3[nH]ncc3c2)c1C` (centres unmarked) [Example 21, N-(5,6-dimethyl-2-(5-phenyl-1,4-diazepan-1-yl)pyrimidin-4-yl)-1H-indazol-5-amine] belongs 21.1%; to `Cc1nc(N2CC(C)NC(C)C2)nc(Nc2ccc3[nH]ncc3c2)c1C` (centres unmarked) [Example 24, N-(2-(3,5-dimethylpiperazin-1-yl)-5,6-dimethylpyrimidin-4-yl)-1H-indazol-5-amine], 22.6%; to `c1cncc(-c2ccc(Nc3ccnc(N4CCNCC4)n3)cc2)c1` [Example 40, 2-(piperazin-1-yl)-N-(4-(pyridin-3-yl)phenyl)pyrimidin-4-amine], 13.4%. With `c1cc(Nc2ccc(-c3nnn[nH]3)cc2)nc(N2CCNCC2)n1` [Example 42, N-(4-(1H-tetrazol-5-yl)phenyl)-2-(piperazin-1-yl)pyrimidin-4-amine], the inhibition at 10 µM came out at 9.1%.

On to `COc1cnc(N2CCCNC(c3ccccc3)C2)nc1Nc1ccc2[nH]ncc2c1` (centres unmarked) [Example 48, N-(5-methoxy-2-(3-phenyl-1,4-diazepan-1-yl)pyrimidin-4-yl)-1H-indazol-5-amine], for which the inhibition at 10 µM amounted to 51.1% and the IC50 stood at 2580 nM. Consider `COc1cnc(N2CCNC(c3ccccc3)CC2)nc1Nc1ccc2[nH]ncc2c1` (centres unmarked) [Example 50, N-(5-methoxy-2-(5-phenyl-1,4-diazepan-1-yl)pyrimidin-4-yl)-1H-indazol-5-amine], for which the inhibition at 10 µM was found to be 35.5%.

Consider `COc1cnc(N2CC(C)NC(C)C2)nc1Nc1ccc2[nH]ncc2c1` (centres unmarked) [Example 52, N-(2-(3,5-dimethylpiperazin-1-yl)-5-methoxypyrimidin-4-yl)-1H-indazol-5-amine], for which the inhibition at 10 µM worked out at 29.5%. As to `c1cc(Nc2ccc3[nH]ncc3c2)nc(N2CCC3(CC2)CNC3)n1` [Example 70, N-(2-(2,7-diazaspiro[3.5]nonan-7-yl)pyrimidin-4-yl)-1H-indazol-5-amine], where the note is “1 μM compound”, the inhibition at 1 µM is -9.7%. Consider `c1cc(Nc2ccc3[nH]ncc3c2)nc(N2CCC3(CNC3)C2)n1` [Example 71, N-(2-(2,6-diazaspiro[3.4]octan-6-yl)pyrimidin-4-yl)-1H-indazol-5-amine], for which, where the note is “1 μM compound”, the inhibition at 1 µM is -12.8%.

Take `c1cc(Nc2ccc3[nH]ncc3c2)nc(N2CCC3(CC2)CNCCO3)n1` [Example 72, N-(2-(1-oxa-4,9-diazaspiro[5.5]undecan-9-yl)pyrimidin-4-yl)-1H-indazol-5-amine]: the inhibition at 1 µM (1 μM compound) is -6.7%. On the same count and under the same terms, the value for `c1cc(Nc2ccc3[nH]ncc3c2)nc(N2CCC3(CCCNC3)C2)n1` (centres unmarked) [Example 73, N-(2-(2,7-diazaspiro[4.5]decan-2-yl)pyrimidin-4-yl)-1H-indazol-5-amine] was -4.8%; that for `c1cc(Nc2ccc3[nH]ncc3c2)nc(N2CCCC3(CCNC3)C2)n1` (centres unmarked) [Example 74, N-(2-(2,7-diazaspiro[4.5]decan-7-yl)pyrimidin-4-yl)-1H-indazol-5-amine] was 2.7%; that for `c1cc(Nc2ccc3[nH]ncc3c2)nc(N2CC3(CCNC3)C2)n1` [Example 75, N-(2-(2,6-diazaspiro[3.4]octan-2-yl)pyrimidin-4-yl)-1H-indazol-5-amine] was -8.7%. The same measure, in the same setting: to `c1cc(Nc2ccc3[nH]ncc3c2)nc(N2CC3(CCNCC3)C2)n1` [Example 76, N-(2-(2,7-diazaspiro[3.5]nonan-2-yl)pyrimidin-4-yl)-1H-indazol-5-amine] belongs 0%; to `c1cc(Nc2ccc3[nH]ncc3c2)nc(N2CC3(CNC3)C2)n1` [Example 77, N-(2-(2,6-diazaspiro[3.3]heptan-2-yl)pyrimidin-4-yl)-1H-indazol-5-amine], -2.9%; to `c1cc(Nc2ccc3[nH]ncc3c2)nc(N2CC3CNCC(C3)C2)n1` [Example 79, N-(2-(3,7-diazabicyclo[3.3.1]nonan-3-yl)pyrimidin-4-yl)-1H-indazol-5-amine], 9.8%. On the same count and under the same terms, to `c1cc(Nc2ccc3[nH]ncc3c2)nc(N2CCC3NCCC3C2)n1` (centres unmarked) [Example 80, N-(2-(octahydro-5H-pyrrolo[3,2-c]pyridin-5-yl)pyrimidin-4-yl)-1H-indazol-5-amine] belongs 11.9%. As to `c1cc(Nc2ccc3[nH]ncc3c2)nc(N2C[C@@H]3CN[C@@H]3C2)n1` [Example 81, N-(2-((1S,5S)-3,6-diazabicyclo[3.2.0]heptan-3-yl)pyrimidin-4-yl)-1H-indazol-5-amine], the inhibition at 1 µM (1 μM compound) was 13.2%. As for `c1cc(Nc2ccc3[nH]ncc3c2)nc(N2CCC(C3CNC3)C2)n1` (centres unmarked) [Example 83, N-(2-(3-(azetidin-3-yl)pyrrolidin-1-yl)pyrimidin-4-yl)-1H-indazol-5-amine], under “1 μM compound”, the inhibition at 1 µM was 2.1%. Take `c1cc(Nc2ccc3[nH]ncc3c2)nc(N2CCCC(C3CCCNC3)C2)n1` (centres unmarked) [Example 86, N-(2-([3,3′-bipiperidin]-1-yl)pyrimidin-4-yl)-1H-indazol-5-amine]: for the setting “A7R5 cells, 1 μM compound”, the “pMLC % inh A7R5 @ [conc]” value is listed as 377.49%.

For the molecule `Cc1cnc(N2CCCNC(C(C)C)C2)nc1Nc1ccc2[nH]ncc2c1` (centres unmarked) [Example 92, N-(2-(3-isopropyl-1,4-diazepan-1-yl)-5-methylpyrimidin-4-yl)-1H-indazol-5-amine], the inhibition at 10 µM came to 19.6%. On the same count and under the same terms, the value for `Cc1cnc(N2CCNC(C(C)C)CC2)nc1Nc1ccc2[nH]ncc2c1` (centres unmarked) [Example 93, N-(2-(5-isopropyl-1,4-diazepan-1-yl)-5-methylpyrimidin-4-yl)-1H-indazol-5-amine] was 21.1%; that for `Cc1cnc(N2CCNC(c3ccccc3)CC2)nc1Nc1ccc2[nH]ncc2c1` (centres unmarked) [Example 94, N-(5-methyl-2-(5-phenyl-1,4-diazepan-1-yl)pyrimidin-4-yl)-1H-indazol-5-amine] was 19.2%; that for `CCC1CN(c2ncc(C)c(Nc3ccc4[nH]ncc4c3)n2)CCN1` (centres unmarked) [Example 99, N-(2-(3-ethylpiperazin-1-yl)-5-methylpyrimidin-4-yl)-1H-indazol-5-amine] was 29.6%.

Take `Cc1cnc(N2CCCNC(c3ccccc3)C2)nc1Nc1ccc2[nH]ncc2c1` (centres unmarked) [Example 103, N-(5-methyl-2-(3-phenyl-1,4-diazepan-1-yl)pyrimidin-4-yl)-1H-indazol-5-amine]: the inhibition at 10 µM turned out to be 38.3%. In the case of `Cc1cc(Nc2ccc3[nH]ncc3c2)nc(N2CCNC(c3ccccc3)CC2)n1` (centres unmarked) [Example 108, N-(6-methyl-2-(5-phenyl-1,4-diazepan-1-yl)pyrimidin-4-yl)-1H-indazol-5-amine], the inhibition at 10 µM was found to be 47.3%.

Take `Cc1cc(Nc2ccc3[nH]ncc3c2)nc(N2CCCNC(c3ccccc3)C2)n1` (centres unmarked) [Example 112, N-(6-methyl-2-(3-phenyl-1,4-diazepan-1-yl)pyrimidin-4-yl)-1H-indazol-5-amine]: the inhibition at 10 µM turned out to be 56.9% and the IC50 is 1290 nM. Take `Cc1cc(Nc2ccc3[nH]ncc3c2)nc(N2CCC3(CC2)CNC3)n1` [Example 121, N-(6-methyl-2-(2,7-diazaspiro[3.5]nonan-7-yl)pyrimidin-4-yl)-1H-indazol-5-amine]: the inhibition at 1 µM (1 μM compound) was -7.3%. The same measure, in the same setting: to `Cc1cc(Nc2ccc3[nH]ncc3c2)nc(N2CCC3(CNC3)C2)n1` [Example 122, N-(6-methyl-2-(2,6-diazaspiro[3.4]octan-6-yl)pyrimidin-4-yl)-1H-indazol-5-amine] belongs -6.8%; to `Cc1cc(Nc2ccc3[nH]ncc3c2)nc(N2CCC3(CC2)CNCCO3)n1` [Example 123, N-(6-methyl-2-(1-oxa-4,9-diazaspiro[5.5]undecan-9-yl)pyrimidin-4-yl)-1H-indazol-5-amine], -0.8%.

These data come from US11613531B2, “Inhibitors of RHO associated coiled-coil containing protein kinase” (Kadmon Corporation, LLC, priority 2017, dated 2023).
